Experimental data published in patent US20230085307A1, “PYRIDAZINONE COMPOUND AND HERBICIDE” (NISSAN CHEMICAL CORPORATION, priority 2019, published 2023).

Key:
barnyard grass [1] = test: Test Example 5: herbicidal effect by foliage application, plastic box (Table 20, symbol H); format: in vivo, barnyard grass (Echinochloa crus-galli); conditions: foliage application
How it was run: (§1)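 Sow seeds spot-wise in sterilized diluvial soil; cover with ~1.5 cm soil. Grow 14 days in greenhouse, 25° C. to 30° C. Spray foliage with emulsion diluted to predetermined amount. Rate effect after 3 weeks.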

Italian ryegrass [2] = test: Test Example 4: herbicidal effect by soil treatment (Table 19, symbol K); format: in vivo, Italian ryegrass (Lolium multiflorum); conditions: amount of applied herbicide 320 g/ha
How it was run: (§2)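 Soil-surface application: an emulsion agent diluted with water to the predetermined dose is sprayed uniformly over seeds lying under roughly 1.5 cm of sterilized diluvial soil. Boxes stay in a greenhouse at 25° C. to 30° C. Three weeks later, each species is graded on previously defined criteria.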

persian speedwell [3] = test: Test Example 5: herbicidal effect by foliage application, plastic box (Table 20, symbol R); format: in vivo, Persian speedwell (Veronica persica); conditions: foliage application
How it was run: as §1

green foxtail [4] = test: Test Example 5: herbicidal effect by foliage application, plastic box (Table 20, symbol G); format: in vivo, green foxtail (Setaria viridis); conditions: foliage application
How it was run: as §1

redroot pigweed [5] = test: Test Example 4: herbicidal effect by soil treatment (Table 19, symbol N); format: in vivo, redroot pigweed (Amaranthus retroflexus); conditions: amount of applied herbicide 320 g/ha
How it was run: as §2

barnyard grass [6] = test: Test Example 3: herbicidal effect by foliage application, Wagner pot (Table 18, symbol H); format: in vivo, barnyard grass (Echinochloa crus-galli); conditions: amount of applied herbicide 320 g/ha
How it was run: (§3)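 Plants were sown in alluvial soil held under 0.1–0.5 cm standing water and grown 14 days in a greenhouse at 25–30 °C. An emulsifiable formulation, water-diluted to the set dose, was then sprayed onto the foliage, and effects were scored three weeks later using previously defined criteria.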

Japanese bulrush = test: Test Example 2: herbicidal activity, application during weed generation under submerged conditions (Table 17, symbol B); format: in vivo, Japanese bulrush (Schoenoplectus juncoides); conditions: AAH 320 g/ha; application during weed generation, submerged conditions
How it was run: (§4)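 Mixed weed seedlings in alluvial soil under a 4 cm water layer, greenhouse-grown at 25–30° C. Compound given as a diluted emulsion into the floodwater at the 1–2 leaf stage; response graded after three weeks.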

wild oat [7] = test: Test Example 4: herbicidal effect by soil treatment (Table 19, symbol I); format: in vivo, wild oat (Avena fatua); conditions: amount of applied herbicide 320 g/ha
How it was run: as §2

redroot pigweed [8] = test: Test Example 5: herbicidal effect by foliage application, plastic box (Table 20, symbol N); format: in vivo, redroot pigweed (Amaranthus retroflexus); conditions: foliage application
How it was run: as §1

barnyard grass [9] = test: Test Example 4: herbicidal effect by soil treatment (Table 19, symbol H); format: in vivo, barnyard grass (Echinochloa crus-galli); conditions: amount of applied herbicide 320 g/ha
How it was run: as §2

velvetleaf [10] = test: Test Example 4: herbicidal effect by soil treatment (Table 19, symbol M); format: in vivo, velvetleaf (Abutilon theophrasti); conditions: amount of applied herbicide 320 g/ha
How it was run: as §2

rice flat sedge = test: Test Example 3: herbicidal effect by foliage application, Wagner pot (Table 18, symbol E); format: in vivo, rice flat sedge (Cyperus iria); conditions: amount of applied herbicide 320 g/ha
How it was run: as §3

chickweed [11] = test: Test Example 4: herbicidal effect by soil treatment (Table 19, symbol P); format: in vivo, common chickweed (Stellaria media); conditions: amount of applied herbicide 320 g/ha
How it was run: as §2

chickweed [12] = test: Test Example 5: herbicidal effect by foliage application, plastic box (Table 20, symbol P); format: in vivo, common chickweed (Stellaria media); conditions: foliage application
How it was run: as §1

lambsquarters [13] = test: Test Example 4: herbicidal effect by soil treatment (Table 19, symbol O); format: in vivo, lambsquarters (Chenopodium album); conditions: amount of applied herbicide 320 g/ha
How it was run: as §2

blackgrass [14] = test: Test Example 4: herbicidal effect by soil treatment (Table 19, symbol J); format: in vivo, blackgrass (Alopecurus myosuroides); conditions: amount of applied herbicide 320 g/ha
How it was run: as §2

velvetleaf [15] = test: Test Example 5: herbicidal effect by foliage application, plastic box (Table 20, symbol M); format: in vivo, velvetleaf (Abutilon theophrasti); conditions: foliage application
How it was run: as §1

southern crabgrass [16] = test: Test Example 4: herbicidal effect by soil treatment (Table 19, symbol F); format: in vivo, southern crabgrass (Digitaria ciliaris); conditions: amount of applied herbicide 320 g/ha
How it was run: as §2

green foxtail [17] = test: Test Example 4: herbicidal effect by soil treatment (Table 19, symbol G); format: in vivo, green foxtail (Setaria viridis); conditions: amount of applied herbicide 320 g/ha
How it was run: as §2

Chinese sprangletop = test: Test Example 3: herbicidal effect by foliage application, Wagner pot (Table 18, symbol D); format: in vivo, chinese sprangletop (Leptochloa chinensis); conditions: amount of applied herbicide 320 g/ha
How it was run: as §3

oval-leafed pondweed = test: Test Example 2: herbicidal activity, application during weed generation under submerged conditions (Table 17, symbol C); format: in vivo, oval-leafed pondweed (Monochoria vaginalis); conditions: AAH 320 g/ha; application during weed generation, submerged conditions
How it was run: as §4

blackgrass [18] = test: Test Example 5: herbicidal effect by foliage application, plastic box (Table 20, symbol J); format: in vivo, blackgrass (Alopecurus myosuroides); conditions: foliage application
How it was run: as §1

persian speedwell [19] = test: Test Example 4: herbicidal effect by soil treatment (Table 19, symbol R); format: in vivo, Persian speedwell (Veronica persica); conditions: amount of applied herbicide 320 g/ha
How it was run: as §2

wild oat [20] = test: Test Example 5: herbicidal effect by foliage application, plastic box (Table 20, symbol I); format: in vivo, wild oat (Avena fatua); conditions: foliage application
How it was run: as §1

windgrass [21] = test: Test Example 5: herbicidal effect by foliage application, plastic box (Table 20, symbol L); format: in vivo, windgrass (Apera spica-venti); conditions: foliage application
How it was run: as §1

lambsquarters [22] = test: Test Example 5: herbicidal effect by foliage application, plastic box (Table 20, symbol O); format: in vivo, lambsquarters (Chenopodium album); conditions: foliage application
How it was run: as §1

Italian ryegrass [23] = test: Test Example 5: herbicidal effect by foliage application, plastic box (Table 20, symbol K); format: in vivo, Italian ryegrass (Lolium multiflorum); conditions: foliage application
How it was run: as §1

windgrass [24] = test: Test Example 4: herbicidal effect by soil treatment (Table 19, symbol L); format: in vivo, windgrass (Apera spica-venti); conditions: amount of applied herbicide 320 g/ha
How it was run: as §2

southern crabgrass [25] = test: Test Example 5: herbicidal effect by foliage application, plastic box (Table 20, symbol F); format: in vivo, southern crabgrass (Digitaria ciliaris); conditions: foliage application
How it was run: as §1

late watergrass = test: Test Example 2: herbicidal activity, application during weed generation under submerged conditions (Table 17, symbol A); format: in vivo, late watergrass (Echinochloa oryzicola); conditions: AAH 320 g/ha; application during weed generation, submerged conditions
How it was run: as §4

[26] = AAH 320 g/ha, evaluated three weeks after application
[27] = 320 g/ha, three weeks after application

## CCOC(=O)OC(C)Oc1c(C)nn(C)c(=O)c1-c1c(-c2ccc(OC(F)F)cc2)sc2ccc(F)cc12 (stereo not drawn) [2-308]
Barnyard grass [1]; [26]
  H: barnyard grass, herbicidal effect (criteria 0-5): 4 (Herbicidal rate of 70% or more and less than 90%)
Italian ryegrass [2]
  herbicidal effect on K: Italian ryegrass: 0 (Herbicidal rate of 5% or less (almost no effect))
Persian speedwell [3]; [26]
  R: persian speedwell, herbicidal effect (criteria 0-5): 5 (Herbicidal rate of 90% or more (almost completely withered))
Green foxtail [4]; [26]
  G: green foxtail, herbicidal effect (criteria 0-5): 5 (Herbicidal rate of 90% or more (almost completely withered))
Redroot pigweed [5]
  herbicidal effect on N: redroot pigweed: 0 (Herbicidal rate of 5% or less (almost no effect))
Barnyard grass [6]
  herbicidal effect on H: barnyard grass: 5 (Herbicidal rate of 90% or more (almost completely withered))
Japanese bulrush
  herbicidal effect rating, B: Japanese bulrush: 0 (Herbicidal rate of 5% or less (almost no effect))
Wild oat [7]
  herbicidal effect on I: wild oat: 0 (Herbicidal rate of 5% or less (almost no effect))
Redroot pigweed [8]; [26]
  N: redroot pigweed, herbicidal effect (criteria 0-5): 4 (Herbicidal rate of 70% or more and less than 90%)
Barnyard grass [9]
  herbicidal effect on H: barnyard grass: 0 (Herbicidal rate of 5% or less (almost no effect))
Velvetleaf [10]
  herbicidal effect on M: velvetleaf: 0 (Herbicidal rate of 5% or less (almost no effect))
Rice flat sedge
  herbicidal effect on E: rice flat sedge: 4 (Herbicidal rate of 70% or more and less than 90%)
Chickweed [11]
  herbicidal effect on P: chickweed: 0 (Herbicidal rate of 5% or less (almost no effect))
Chickweed [12]; [26]
  P: chickweed, herbicidal effect (criteria 0-5): 5 (Herbicidal rate of 90% or more (almost completely withered))
Lambsquarters [13]
  herbicidal effect on O: lambsquarters: 0 (Herbicidal rate of 5% or less (almost no effect))
Blackgrass [14]
  herbicidal effect on J: blackgrass: 0 (Herbicidal rate of 5% or less (almost no effect))
Velvetleaf [15]; [26]
  M: velvetleaf, herbicidal effect (criteria 0-5): 5 (Herbicidal rate of 90% or more (almost completely withered))
Southern crabgrass [16]
  herbicidal effect on F: southern crabgrass: 0 (Herbicidal rate of 5% or less (almost no effect))
Green foxtail [17]
  herbicidal effect on G: green foxtail: 0 (Herbicidal rate of 5% or less (almost no effect))
Chinese sprangletop
  herbicidal effect on D: Chinese sprangletop: 3 (Herbicidal rate of 40% or more and less than 70%)
oval-leafed pondweed
  herbicidal effect rating, C: oval-leafed pondweed: 0 (Herbicidal rate of 5% or less (almost no effect))
Blackgrass [18]; [26]
  J: blackgrass, herbicidal effect (criteria 0-5): 0 (Herbicidal rate of 5% or less (almost no effect))
Persian speedwell [19]
  herbicidal effect on R: persian speedwell: 5 (Herbicidal rate of 90% or more (almost completely withered))
Wild oat [20]; [26]
  I: wild oat, herbicidal effect (criteria 0-5): 0 (Herbicidal rate of 5% or less (almost no effect))
Windgrass [21]; [26]
  L: windgrass, herbicidal effect (criteria 0-5): 0 (Herbicidal rate of 5% or less (almost no effect))
Lambsquarters [22]; [26]
  O: lambsquarters, herbicidal effect (criteria 0-5): 5 (Herbicidal rate of 90% or more (almost completely withered))
Italian ryegrass [23]; [26]
  K: Italian ryegrass, herbicidal effect (criteria 0-5): 0 (Herbicidal rate of 5% or less (almost no effect))
Windgrass [24]
  herbicidal effect on L: windgrass: 0 (Herbicidal rate of 5% or less (almost no effect))
Southern crabgrass [25]; [26]
  F: southern crabgrass, herbicidal effect (criteria 0-5): 1 (Herbicidal rate of 5% or more and less than 20%)
Late watergrass
  herbicidal effect rating, A: late watergrass: 3 (Herbicidal rate of 40% or more and less than 70%)

## CCc1nn(C)c(=O)c(-c2c(-c3ccc(F)cc3)sc3ccc(F)cc23)c1O [2-406]
Barnyard grass [1]; [27]
  H: barnyard grass, herbicidal effect grade: 4 (Herbicidal rate of 70% or more and less than 90%)
Italian ryegrass [2]
  herbicidal effect, K: Italian ryegrass: 3 (Herbicidal rate of 40% or more and less than 70%)
Persian speedwell [3]; [27]
  R: persian speedwell, herbicidal effect grade: 5 (Herbicidal rate of 90% or more (almost completely withered))
Green foxtail [4]; [27]
  G: green foxtail, herbicidal effect grade: 5 (Herbicidal rate of 90% or more (almost completely withered))
Redroot pigweed [5]
  herbicidal effect, N: redroot pigweed: 4 (Herbicidal rate of 70% or more and less than 90%)
Barnyard grass [6]
  herbicidal effect on H: barnyard grass: 4 (Herbicidal rate of 70% or more and less than 90%)
Japanese bulrush
  herbicidal effect rating, B: Japanese bulrush: 0 (Herbicidal rate of 5% or less (almost no effect))
Wild oat [7]
  herbicidal effect, I: wild oat: 0 (Herbicidal rate of 5% or less (almost no effect))
Redroot pigweed [8]; [27]
  N: redroot pigweed, herbicidal effect grade: 5 (Herbicidal rate of 90% or more (almost completely withered))
Barnyard grass [9]
  herbicidal effect, H: barnyard grass: 4 (Herbicidal rate of 70% or more and less than 90%)
Velvetleaf [10]
  herbicidal effect, M: velvetleaf: 3 (Herbicidal rate of 40% or more and less than 70%)
Rice flat sedge
  herbicidal effect on E: rice flat sedge: 5 (Herbicidal rate of 90% or more (almost completely withered))
Chickweed [11]
  herbicidal effect, P: chickweed: 3 (Herbicidal rate of 40% or more and less than 70%)
Chickweed [12]; [27]
  P: chickweed, herbicidal effect grade: 5 (Herbicidal rate of 90% or more (almost completely withered))
Lambsquarters [13]
  herbicidal effect, O: lambsquarters: 3 (Herbicidal rate of 40% or more and less than 70%)
Blackgrass [14]
  herbicidal effect, J: blackgrass: 0 (Herbicidal rate of 5% or less (almost no effect))
Velvetleaf [15]; [27]
  M: velvetleaf, herbicidal effect grade: 5 (Herbicidal rate of 90% or more (almost completely withered))
Southern crabgrass [16]
  herbicidal effect, F: southern crabgrass: 2 (Herbicidal rate of 20% or more and less than 40%)
Green foxtail [17]
  herbicidal effect, G: green foxtail: 4 (Herbicidal rate of 70% or more and less than 90%)
Chinese sprangletop
  herbicidal effect on D: Chinese sprangletop: 4 (Herbicidal rate of 70% or more and less than 90%)
oval-leafed pondweed
  herbicidal effect rating, C: oval-leafed pondweed: 0 (Herbicidal rate of 5% or less (almost no effect))
Blackgrass [18]; [27]
  J: blackgrass, herbicidal effect grade: 3 (Herbicidal rate of 40% or more and less than 70%)
Persian speedwell [19]
  herbicidal effect, R: persian speedwell: 0 (Herbicidal rate of 5% or less (almost no effect))
Wild oat [20]; [27]
  I: wild oat, herbicidal effect grade: 0 (Herbicidal rate of 5% or less (almost no effect))
Windgrass [21]; [27]
  L: windgrass, herbicidal effect grade: 4 (Herbicidal rate of 70% or more and less than 90%)
Lambsquarters [22]; [27]
  O: lambsquarters, herbicidal effect grade: 4 (Herbicidal rate of 70% or more and less than 90%)
Italian ryegrass [23]; [27]
  K: Italian ryegrass, herbicidal effect grade: 4 (Herbicidal rate of 70% or more and less than 90%)
Windgrass [24]
  herbicidal effect, L: windgrass: 0 (Herbicidal rate of 5% or less (almost no effect))
Southern crabgrass [25]; [27]
  F: southern crabgrass, herbicidal effect grade: 3 (Herbicidal rate of 40% or more and less than 70%)
Late watergrass
  herbicidal effect rating, A: late watergrass: 2 (Herbicidal rate of 20% or more and less than 40%)
